From paper PMC2063203, “The renal effects of the water-soluble, non-folylpolyglutamate synthetase-dependent thymidylate synthase inhibitor ZD9331 in mice” (British Journal of Cancer, 1998)
Converted amounts (≈) assume the structure as drawn. “And” between values parts separate entries of the source, which are not always exact repeats. Equal entries are not always repeated. Where two headings read alike, the source gives them in different places.

Key:
[1] = tested on: DBA-2 mice; assay: Glomerular filtration rate (GFR) by [14C]inulin clearance after bolus drug; format: in vivo
Description: (§1) British Journal of Cancer (1998) 78(11), 1457-1463 ? […] In contrast to Tomudex (ZD1694), ZD9331 may therefore be active against tumours with low FPGS activity. […] In view of the history of renal toxicity with some earlier TS inhibitors and the possible therapeutic use of bolus ZD9331, we have examined the effects of bolus ZD9331 dose and route of administration on plasma and kidney pharmacokinetics and renal function in mice. Renal function was assessed by measuring [14C]inulin clearance, and drug concentrations were assayed by reverse-phase high-performance liquid chromatography (HPLC). […] Kidney drug concentrations were slightly elevated in iv.- versus i.p.-treated animals at the low dose (50 mg kg-'), with a correspondingly larger area under the curve. However, at the highest dose (200 mg kg-'), peak kidney drug concentrations were 20-fold higher following i.v. administration than after i.p., with marked kidney retention, resulting in a 50-fold greater kidney drug exposure for the i.v. versus the i.p. route. […] These adverse effects can be readily overcome by i.p. administration, indicating the likely need for short infusions in clinical settings. […] Early studies established that nephrotoxicity may be a result of poor aqueous solubility of 2-amino compounds such as CB3717, and it was shown that 2-desamino CB3717 was more water soluble and less nephrotoxic (Jones et al, 1989; 1996). […] These polyglutamate forms also exibit intra- cellular retention, which may contribute to toxicity as well as anti- tumour activity. […] Such compounds might be expected to show activity in a different spectrum of tumours from ZD1694 and to have a more manageable toxicity profile because of the lack of retained cyto- toxic metabolites. […] MATERIALS AND METHODS Drug administration and animals The compound ZD933 1 (Figure 1) was provided as a white crystalline salt. ['4C]inulin was provided as a carboxylic acid (Amersham, UK, 250 µCi in 5 ml, specific activity 6.6 mCi mmol-') and diluted to an activity of 5 µCi ml-' in phosphate-buffered saline (PBS). ZD9331 was dissolved in 0.05 M sodium bicarbonate, 1457 1458 Ml Walton et al ~~ N Ny~~~14COOHH 0 H IN H N CH ~~~~H , 4 H3C N3 H Figure 1 The chemical structure of ZD9331 adjusted to pH 9.0 and administered either i.v. via the tail vein or i.p. at 0.01 ml g-' mouse body weight. [14C]inulin was administered at 0.05 gCi g-' (i.e. 0.01 ml g-') i.v. via the tail vein. Adult female DBA-2 mice were obtained from OLAC (Bicester, UK) and used at 8-12 weeks of age at a body weight of 15-25 g. Mice were housed in cages containing untreated sawdust and allowed access to food and water ad libitum. Sample preparation Plasma and tissue samples were prepared using standard tech- niques (Walton et al, 1996). Briefly, whole blood was obtained by cardiac puncture into heparinized syringes from halothane- anaesthetized mice. Plasma was prepared by centrifugation at 12 000 r.p.m. x 2 min in a bench-top microcentrifuge. Kidney and liver tissues were rapidly removed, washed and snap frozen on dry ice. Frozen plasma and tissues were stored at -20?C for up to 4 weeks prior to analysis. Individual samples were thawed on ice and handled rapidly. ZD9331 was extracted from whole plasma or tissue homogenates (33% w/v in 0.1 M Tris, pH 10.0) by the addition of an equal volume of acetonitrile, mixing and centrifugation and the super- natant removed for injection into the HPLC system. Samples were diluted with Tris buffer (0.1 M, pH 10.0) on to the linear part of the calibration curve prior to HPLC analysis. Extraction efficiencies were >95%. HPLC analysis Concentrations of ZD9331 were measured in biological samples using reversed phase HPLC on equipment supplied by Kontron (Watford, UK). Separations were carried out using stainless-steel columns heated at 45?C and packed with C18 Supelcosil ODS (10 cm x 4.6 mm, 5 µm bead size, Sigma, Dorset) and protected with NewGuard C18 columns (Anachem, Luton, UK). […]

[2] = Aqueous solubility; format: physicochemical
[3] = tested on: DBA-2 mice; assay: Kidney histology (H & E) and immunohistochemical staining for ZD9331; format: in vivo
[4] = Peak plasma concentration in phase I, 30 min infusion; format: in vivo; details: after 30 min infusion
[5] = Kidney drug distribution and kidney-plasma ratios (HPLC); format: in vivo, mice; details: for Cmax / Tmax / AUC(0-t): mouse, DBA-2 mice; for AUC(0-t): read-out: AUC0-8h
Description: as §1

[6] = tested on: L5178Y (TK-/-) lymphoma; set-up: method as in Stephens et al, 1994; Jackman et al, 1997; details: ref Stephens et al, 1994, Jackman et al, 1997, cited from earlier work
[7] = female, ip, kidney, 50 mg kg-1 i.p.
[8] = female, ip, kidney, 200 mg kg-1 i.p.
[9] = female, iv, kidney, 50 mg kg-1 i.v.
[10] = female, iv, kidney, 200 mg kg-1 i.v.

SMILES: C#CCN(Cc1cc2c(=O)[nH]c(C)nc2cc1C)c1ccc(C(=O)N[C@@H](CCc2nnn[nH]2)C(=O)O)c(F)c1 [ZD9331, (2S)-2-{O-fluoro-p-(N-(2,7-dimethyl-4-oxo-3,4-dihydroquinazolin-6-ylmethyl)-N-(prop-2-ynyl)amino}benzamido}-4-(tetrazol-5-yl)butyric acid]
- effect on renal function (GFR) ([1]; 50 mg kg-1, 4 h after administration): minimal effects on renal function
- effect on GFR ([1]; 150 mg kg-1 i.p., 24 h after administration): no effect
- effect on GFR ([1]; 150 mg kg-1 i.v., 4 h after administration): slight decrease in GFR
- effect on GFR ([1]; 150 mg kg-1 i.v., 24 h after administration): no effect
- effect on GFR ([1]; 200 mg kg-1 i.p.): minimal
- effect on GFR ([1]; 200 mg kg-1 i.v., 4 h after administration): profound decrease in GFR
- effect on GFR ([1]; 200 mg kg-1 i.v., 24 h after administration): GFR inhibition was less profound
- nephrotoxicity ([1]; active anti-tumour dose, 50 mg kg-1 i.p., mice): non-nephrotoxic
- effect on renal function (GFR) ([1]; doses up to 150 mg kg-1 i.v. or i.p., 4 or 24 h post treatment): no evidence of compromised renal function
- solubility ([2]; pH 5.3, aqueous buffer): 0.1 mM (≈ 53.3 µg/mL)
- solubility ([2]; pH 7.4, aqueous buffer): 8 mM (≈ 4260 µg/mL)
- renal histology ([3]; 200 mg kg-1 i.v., 4 h after): evidence of tubular dilatation (Figure SB), with the presence of fine granular casts in the tubules
- drug distribution in kidney tissue (histology with immunohistochemical staining) ([3]; 200 mg kg-1 i.v., data not shown): uniform drug distribution in tissue with no evidence of drug precipitation
- renal histology ([3]; lower drug doses): some tubular dilatation
- peak plasma drug concentration in man as % of that after 200 mg kg-1 i.v. in mouse [4]: < 1%
- peak kidney drug level i.p., % lower than i.v. ([5]; 50 mg kg-1): 80%
- kidney AUC0-8h i.p. as % of i.v. route ([5]; 200 mg kg-1): 1.8%
- kidney drug exposure i.v. versus i.p. ([5]; 200 mg kg-1): 50 fold
- peak kidney drug concentration i.v. versus i.p. ([5]; 200 mg kg-1): 20 fold
- peak kidney drug level i.p. as % of i.v. value ([5]; 200 mg kg-1): 5%
- kidney-plasma ratio at 8 h ([5]; 200 mg kg-1 i.p.): 2 000%
- kidney-plasma ratio relative to the lower dose of 50 mg kg-1 ([5]; 200 mg kg-1 i.p.): 2-3 times
- kidney-plasma ratio, initial ([5]; 200 mg kg-1 i.p.): 20%
- kidney AUC0-8h ([5]; 200 mg kg-1 i.v.): 9.66 mM·h
- kidney-plasma ratio after 8 h ([5]; 200 mg kg-1 i.v.): 100 000%
- kidney-plasma ratio, initial (measured at 5 min) ([5]; 200 mg kg-1 i.v.): > 100%
- peak kidney drug level ([5]; 200 mg kg-1 i.v.): 3.62 mM
- peak kidney drug level versus lower dose ([5]; 200 mg kg-1 i.v. compared with 50 mg kg-1 i.v.): ~12 fold
- Kp at 4 h ([5]; female, DBA-2, mouse, kidney, ip, 50 mg kg-1, 50 mg kg-1 i.p., Discussion, read-out: kidney-plasma ratio, steady-state equilibrium at 4 h): 2 to 4
- Kp at 1 h ([5]; female, DBA-2, mouse, kidney, ip, 50 mg kg-1, 50 mg kg-1 i.p., read-out: kidney-plasma ratio after 1 h): 1
- Kp ([5]; female, DBA-2, mouse, kidney, ip, 50 mg kg-1, 50 mg kg-1 i.p., read-out: kidney-plasma ratio, steady-state): 1 to 3
- Kp at 30 min ([5]; female, DBA-2, mouse, kidney, iv, 50 mg kg-1, 50 mg kg-1 i.v., read-out: kidney-plasma ratio at 30 min): 10
- Kp at 2 h ([5]; female, DBA-2, mouse, kidney, iv, 50 mg kg-1, 50 mg kg-1 i.v., read-out: kidney-plasma ratio, equilibrium at 2 h): 2 to 3
- Kp ([5]; female, DBA-2, mouse, kidney, iv, 50 mg kg-1, 50 mg kg-1 i.v., read-out: kidney-plasma ratio, initial): 0.35
- Kp ([5]; female, DBA-2, mouse, kidney, iv, 200 mg kg-1, 200 mg kg-1 i.v., read-out: kidney concentration relative to plasma, plateau): 400 to 600
- Kp at 5 min ([5]; female, DBA-2, mouse, kidney, iv, 200 mg kg-1, 200 mg kg-1 i.v., read-out: kidney-plasma ratio, initial (measured at 5 min)): 1
- Kp ([5]; female, DBA-2, mouse, kidney/plasma, ip, 200 mg kg-1, 200 mg kg-1 i.p., read-out: kidney-plasma ratio, increased steadily to): 10 to 20
- Kp ([5]; female, DBA-2, mouse, kidney/plasma, ip, 200 mg kg-1, 200 mg kg-1 i.p., read-out: kidney-plasma ratio, initial): 0.23
- Cmax [5, 7]: 31500 ng/g and 59.1 µM
- Tmax [5, 7]: 10 min
- AUC(0-t) [5, 7]: 47.5 µM·h
- Cmax [5, 8]: 96400 ng/g and 181 µM
- Tmax [5, 8]: 30 min
- AUC(0-t) [5, 8]: 179 µM·h
- Cmax [5, 9]: 163000 ng/g and 305 µM
- Tmax [5, 9]: 10 min
- AUC(0-t) [5, 9]: 240 µM·h
- Cmax [5, 10]: 1.9e+06 ng/g and 3.62 mM
- Tmax [5, 10]: 30 min
- AUC(0-t) [5, 10]: 9660 µM·h
- anti-tumour activity ([6]; 24-h s.c. infusion, 3 mg kg-1): anti-tumour activity
- anti-tumour activity ([6]; bolus administration, 50 mg kg-1): anti-tumour activity
